Source: ChEMBL document CHEMBL3714734, “Modulators of G protein-coupled receptor 88” (2013)

Tests used:
[1] = target: T1, G protein-coupled receptor 88 (Homo sapiens, UniProt Q9GZN0); experiment: Modulator activity at GPR88 (unknown origin) incubated for 30 mins by cell based cAMP HTRF assay; format: functional
[2] = target: T1, G protein-coupled receptor 88; experiment: Modulator activity at GPR88 (unknown origin) expressed in cell membranes incubated for 1 hr by liquid scintillation counting based [35S]GTPgammaS binding assay; format: functional

T1 sequence (Q9GZN0 whole entry): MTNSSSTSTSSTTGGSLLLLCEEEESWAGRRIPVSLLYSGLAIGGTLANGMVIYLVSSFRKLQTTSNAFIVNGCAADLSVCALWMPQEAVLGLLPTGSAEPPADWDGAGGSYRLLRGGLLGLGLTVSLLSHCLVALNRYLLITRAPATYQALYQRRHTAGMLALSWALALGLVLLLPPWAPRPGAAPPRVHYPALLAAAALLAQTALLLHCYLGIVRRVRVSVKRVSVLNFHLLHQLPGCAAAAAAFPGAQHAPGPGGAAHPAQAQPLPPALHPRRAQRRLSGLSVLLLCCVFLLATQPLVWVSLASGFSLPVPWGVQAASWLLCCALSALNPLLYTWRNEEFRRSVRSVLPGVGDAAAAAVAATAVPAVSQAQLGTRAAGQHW

Row | EC50 [1] [nM] | EC50 [2] [nM] | Compound
1 | ≤ 130 | – | CCC(CC)COc1ccc([C@H](CO)NC(=O)[C@H]2C[C@@H]2c2cccs2)c(C)c1
2 | ≤ 130 | – | CC[C@H](C)COc1ccc([C@H](CO)NC(=O)[C@H]2C[C@@H]2c2cccs2)c(C)c1
3 | ≤ 130 | – | CCC(CC)COc1ccc([C@H](CO)NC(=O)[C@H]2C[C@@H]2c2cccs2)cc1
4 | – | ≤ 130 | CC[C@H](C)COc1ccc([C@H](CN)NC(=O)[C@H]2C[C@@H]2c2cccs2)c(C)c1
5 | ≤ 130 | – | CCCC(C)COc1ccc([C@H](CO)NC(=O)[C@H]2C[C@@H]2c2cccs2)c(C)c1 (stereo partly drawn)
6 | ≤ 130 | – | CCCC#Cc1ccc([C@H](CO)NC(=O)[C@H]2C[C@@H]2c2cccs2)c(OC)c1

The next lines start with the compound.

Row | Compound | EC50 [1] [nM] | EC50 [2] [nM]
7 | Cc1ccc(-c2ccc([C@H](CO)NC(=O)[C@H]3C[C@@H]3c3cccs3)cc2)cc1 | ≤ 130 | –
8 | CC[C@H](C)COc1ccc([C@H](CN2CCN(C)CC2)NC(=O)[C@H]2C[C@@H]2c2cccs2)cc1 | ≤ 130 | –
9 | CC[C@H](C)COc1ccc([C@H](CN)NC(=O)[C@H]2C[C@@H]2c2cccs2)cc1 | – | ≤ 130
10 | CCCC(C)COc1ccc([C@H](CN2CCN(C)CC2)NC(=O)[C@H]2C[C@@H]2c2cccs2)cc1 (stereo partly drawn) | – | ≤ 130
11 | CCc1ccc(-c2ccc([C@H](CO)NC(=O)[C@H]3C[C@@H]3c3cccs3)cc2)cc1 | – | ≤ 130
12 | CCc1ccc(-c2ccc([C@H](CO)NC(=O)[C@H]3C[C@@H]3c3cccs3)c(OC)c2)cc1 | – | ≤ 130
13 | CC[C@H](NC(=O)[C@H]1C[C@@H]1c1ccccc1)c1ccc(-c2ccc(OC)cc2)cc1 | – | ≤ 130
